Assay results published in paper PMC3914206.

Columns and labels:
panel of 442 kinases [1] = target: T1, panel of 442 kinases (Homo sapiens, UniProt Q13705); type: binding; design: KINOMEscan: ABL1(F317L)-phosphorylated / KINOMEscan: ABL1(H396P)-nonphosphorylated / KINOMEscan: ABL1(H396P)-phosphorylated / KINOMEscan: ABL1(M351T)-phosphorylated / KINOMEscan: ABL1(T315I)-phosphorylated / KINOMEscan: ABL1-nonphosphorylated / KINOMEscan: ABL1-phosphorylated / KINOMEscan: ACVR2A / KINOMEscan: ACVR2B / KINOMEscan: ADCK3 / KINOMEscan: ADCK4 / KINOMEscan: AKT1 / KINOMEscan: AKT3 / KINOMEscan: ALK / KINOMEscan: ARK5 / KINOMEscan: AURKA / KINOMEscan: AURKC / KINOMEscan: BIKE / KINOMEscan: BMPR1A / KINOMEscan: BMPR1B / KINOMEscan: BMX / KINOMEscan: BRK / KINOMEscan: BRSK1 / KINOMEscan: BRSK2 / KINOMEscan: CAMK1 / KINOMEscan: CAMK1D / KINOMEscan: CAMK1G / KINOMEscan: CAMK2A / KINOMEscan: CAMK2B / KINOMEscan: AAK1 / KINOMEscan: CAMK2D / KINOMEscan: CAMK2G / KINOMEscan: ABL1(F317I)-nonphosphorylated / KINOMEscan: ABL1(F317I)-phosphorylated / KINOMEscan: ABL1(F317L)-nonphosphorylated: unit: % Ctrl; conditions: Compound Concentration 10 µM
T1 construct: purchased KINOMEscan
T1 sequence (Q13705 19-512): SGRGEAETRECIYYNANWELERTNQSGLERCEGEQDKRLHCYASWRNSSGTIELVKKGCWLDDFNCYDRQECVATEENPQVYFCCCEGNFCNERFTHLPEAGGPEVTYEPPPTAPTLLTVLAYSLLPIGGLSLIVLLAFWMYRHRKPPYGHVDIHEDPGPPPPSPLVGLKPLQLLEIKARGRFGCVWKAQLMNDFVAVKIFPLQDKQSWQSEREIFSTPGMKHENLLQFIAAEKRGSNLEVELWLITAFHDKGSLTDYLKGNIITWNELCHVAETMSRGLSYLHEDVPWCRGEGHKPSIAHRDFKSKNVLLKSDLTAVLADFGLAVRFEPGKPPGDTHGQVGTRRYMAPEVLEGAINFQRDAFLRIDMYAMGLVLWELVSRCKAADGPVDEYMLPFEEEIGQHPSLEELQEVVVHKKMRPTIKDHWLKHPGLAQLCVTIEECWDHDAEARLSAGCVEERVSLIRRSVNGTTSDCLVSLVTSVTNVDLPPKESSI
From the text: (§1) We assessed the selectivity of members of this scaffold using the KINOMEscan methodology across a near comprehensive panel of 442 kinases [[18,27]].

panel of 442 kinases [2] = target: T2, panel of 442 kinases (Homo sapiens, UniProt Q9NWZ3); type: binding; design: KINOMEscan: ABL1(F317L)-phosphorylated / KINOMEscan: ABL1(H396P)-nonphosphorylated / KINOMEscan: ABL1(H396P)-phosphorylated / KINOMEscan: ABL1(M351T)-phosphorylated / KINOMEscan: ABL1(T315I)-phosphorylated / KINOMEscan: ABL1-nonphosphorylated / KINOMEscan: ABL1-phosphorylated / KINOMEscan: ACVR2A / KINOMEscan: ACVR2B / KINOMEscan: ADCK3 / KINOMEscan: ADCK4 / KINOMEscan: AKT1 / KINOMEscan: AKT3 / KINOMEscan: ALK / KINOMEscan: ARK5 / KINOMEscan: AURKA / KINOMEscan: AURKC / KINOMEscan: BIKE / KINOMEscan: BMPR1A / KINOMEscan: BMPR1B / KINOMEscan: BMX / KINOMEscan: BRK / KINOMEscan: BRSK1 / KINOMEscan: BRSK2 / KINOMEscan: CAMK1 / KINOMEscan: CAMK1D / KINOMEscan: CAMK1G / KINOMEscan: CAMK2A / KINOMEscan: CAMK2B / KINOMEscan: AAK1 / KINOMEscan: CAMK2D / KINOMEscan: CAMK2G / KINOMEscan: ABL1(F317I)-nonphosphorylated / KINOMEscan: ABL1(F317I)-phosphorylated / KINOMEscan: ABL1(F317L)-nonphosphorylated: unit: % Ctrl; conditions: Compound Concentration 10 µM
T2 construct: purchased KINOMEscan
T2 sequence (Q9NWZ3 1-460): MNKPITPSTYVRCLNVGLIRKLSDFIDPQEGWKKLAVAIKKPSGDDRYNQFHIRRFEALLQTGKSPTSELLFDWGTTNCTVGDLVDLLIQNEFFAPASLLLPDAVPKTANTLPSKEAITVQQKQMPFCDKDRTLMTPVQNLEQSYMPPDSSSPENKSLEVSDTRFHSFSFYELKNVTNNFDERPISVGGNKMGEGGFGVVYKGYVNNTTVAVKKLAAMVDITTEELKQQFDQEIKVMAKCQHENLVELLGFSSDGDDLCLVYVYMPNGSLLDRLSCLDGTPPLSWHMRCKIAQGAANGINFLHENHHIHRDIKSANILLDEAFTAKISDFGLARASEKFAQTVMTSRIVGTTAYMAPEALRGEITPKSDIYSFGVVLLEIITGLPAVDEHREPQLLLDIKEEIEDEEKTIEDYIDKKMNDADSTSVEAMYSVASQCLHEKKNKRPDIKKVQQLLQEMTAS
From the text: as §1

Row | Compound | KINOMEscan: ACVR2B (panel of 442 kinases [1]) | KINOMEscan: IRAK4 (panel of 442 kinases [2])
1 | COc1cc(C(=O)N2CCC(N3CCN(C)CC3)CC2)ccc1Nc1ncc2c(n1)N(C1CCCC1)c1ccccc1C(=O)N2C [Compound 25, 11-cyclopentyl-2-((2-methoxy-4-(4-(4-methylpiperazin-1-yl)piperidine-1-carbonyl)phenyl)amino)-5-methyl-5H-benzo[e]pyrimido[5,4-b][1,4]diazepin-6(11H)-one] | 91 | 100
2 | COc1cc(C(=O)N2CCC(N3CCN(C)CC3)CC2)ccc1Nc1ncc2c(n1)N(C)c1ccccc1C(=O)N2C [15 (LRRK2-IN-1)] | 100 | 83
3 | CCOc1cc(C(=O)N2CCC(N3CCN(C)CC3)CC2)ccc1Nc1ncc2c(n1)N(C1CCCC1)c1ccccc1C(=O)N2C [Compound 26] | 100 | 100
